Results as given in US6020370A, “Bridged cyclic amino acids as pharmaceutical agents” (Warner-Lambert Company, priority 1998, dated 2000).

Target: T1, α2 δ subunit of a calcium channel (Sus scrofa, UniProt A0A287BIN3)
T1 construct: derived from porcine brain tissue; from tissue; host or cells: porcine brain tissue
Assay: Radioligand binding assay using [^3 H]gabapentin and the α2 δ subunit derived from porcine brain tissue
Settings: Table 1, [^3 H]gabapentin

T1 sequence (A0A287BIN3 entry or part of it): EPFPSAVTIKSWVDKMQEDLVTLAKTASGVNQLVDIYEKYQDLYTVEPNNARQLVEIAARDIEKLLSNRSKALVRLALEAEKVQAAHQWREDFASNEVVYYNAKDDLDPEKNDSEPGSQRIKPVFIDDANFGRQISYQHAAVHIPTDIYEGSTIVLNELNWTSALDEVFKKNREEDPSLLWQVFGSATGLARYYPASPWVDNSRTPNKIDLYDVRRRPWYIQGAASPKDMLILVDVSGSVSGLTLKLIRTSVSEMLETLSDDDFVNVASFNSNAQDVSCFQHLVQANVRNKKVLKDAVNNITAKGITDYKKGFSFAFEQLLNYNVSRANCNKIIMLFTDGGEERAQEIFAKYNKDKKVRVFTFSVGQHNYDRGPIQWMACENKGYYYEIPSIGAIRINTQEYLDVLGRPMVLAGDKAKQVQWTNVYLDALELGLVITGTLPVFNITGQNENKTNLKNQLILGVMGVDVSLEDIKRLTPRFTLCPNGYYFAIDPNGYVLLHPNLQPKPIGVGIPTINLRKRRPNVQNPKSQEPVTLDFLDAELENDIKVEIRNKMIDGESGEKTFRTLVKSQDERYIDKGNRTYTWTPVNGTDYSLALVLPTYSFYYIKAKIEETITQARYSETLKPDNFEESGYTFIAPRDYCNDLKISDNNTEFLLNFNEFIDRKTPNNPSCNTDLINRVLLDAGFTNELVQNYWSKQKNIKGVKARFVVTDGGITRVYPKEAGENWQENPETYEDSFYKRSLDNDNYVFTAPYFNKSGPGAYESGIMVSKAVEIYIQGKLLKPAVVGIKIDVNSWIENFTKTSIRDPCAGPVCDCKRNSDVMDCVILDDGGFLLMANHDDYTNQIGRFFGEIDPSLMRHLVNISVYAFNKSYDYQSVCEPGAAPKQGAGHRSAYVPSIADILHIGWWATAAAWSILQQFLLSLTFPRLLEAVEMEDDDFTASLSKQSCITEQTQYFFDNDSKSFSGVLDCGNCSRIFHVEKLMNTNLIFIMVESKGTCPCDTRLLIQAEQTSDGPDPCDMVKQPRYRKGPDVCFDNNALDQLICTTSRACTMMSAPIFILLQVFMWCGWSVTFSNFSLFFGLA

With `NCC1(CC(=O)O)CC2CCC1C2` (racemic) [Compound 5] as the compound, how does the IC50 read?
The IC50 was 103 nM.

For `NCC1(CC(=O)O)C2CCCC1CCC2` (centres unmarked) [Compound 3], which IC50 is on record?
The IC50 was 47 nM.
